Data from ChEMBL document CHEMBL1201862, “PubChem BioAssay data set” (2004).
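96-well plates; 48 h exposure; 5 concentrations. Endpoints by linear interpolation between flanking doses. Not reached: highest tested concentration assigned. Here, GI50 denotes the concentration required for 50% inhibition of growth.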 Activity calls are given as the source filed them. Rule as the data show it: active = GI50 up to about 1.1 µM and inactive = higher.

Tests used:
Experiment in all cases: NCI anticancer screen, dose series, 48 h
[1] = tested on: OVCAR-3
[2] = tested on: LOX IMVI
[3] = tested on: SF-539
[4] = tested on: T47D
[5] = tested on: SNB-19
[6] = tested on: MDA-N
[7] = tested on: HCT-15
[8] = tested on: SK-MEL-2
[9] = tested on: RXF 393
[10] = tested on: UO-31
[11] = tested on: BT-549
[12] = tested on: CAKI-1
[13] = tested on: K562
[14] = tested on: HT-29
[15] = tested on: HOP-92
[16] = tested on: MCF7
[17] = tested on: Malme-3M
[18] = tested on: EKVX
[19] = tested on: SR

For `COc1cc2c(c(OC)c1OC)-c1ccc(SC)c(=O)cc1[C@@H](OC(C)=O)CC2`, the GI50 [1] was < 0.01 µM (active), the GI50 [2] was < 0.01 µM (active) and the GI50 [3] was < 0.01 µM (active). For the same compound, the GI50 [4] was > 100 µM (inactive), the GI50 [5] was < 0.01 µM (active) and the GI50 [6] was < 0.01 µM (active). The GI50 [7] was less than 0.01 µM, the GI50 [8] was < 0.01 µM (active) and the GI50 [9] was 0.885 µM (active). For the same compound, the GI50 [10] was < 0.01 µM (active), the GI50 [11] was < 0.01 µM (active) and the GI50 [12] was < 0.01 µM (active). For the same compound, the GI50 [13] was < 0.01 µM (active), the GI50 [14] was < 0.01 µM (active) and the GI50 [15] was > 100 µM (inactive). The GI50 [16] was < 0.01 µM (active) and the GI50 [17] was < 0.01 µM (active).
With `C/C(O)=C/C(=O)c1[nH]c(C(=O)O)cc1C1CCN(Cc2ccccc2)C1=O` (stereo not given) the GI50 [1] was 21.7 µM (inactive), the GI50 [4] was 15.7 µM (inactive) and the GI50 [5] was 22.7 µM (inactive). For the same compound, the GI50 [6] was 17.2 µM (inactive), the GI50 [7] was 11 µM and the GI50 [8] was 22.8 µM (inactive). The GI50 [9] was 12 µM (inactive), the GI50 [10] was 14.2 µM (inactive) and the GI50 [11] was 22.6 µM (inactive). For the same compound, the GI50 [12] was 42.3 µM (inactive), the GI50 [13] was 29.4 µM (inactive) and the GI50 [14] was 29.2 µM (inactive). For the same compound, the GI50 [18] was 21.3 µM (inactive), the GI50 [15] was 20.8 µM (inactive) and the GI50 [16] was 22.1 µM (inactive). For the same compound, the GI50 [17] was 20 µM (inactive).
`CC(C)(C)NCc1cc(C(C)(C)C)cc(-c2ccc(Cl)cc2)c1O` was tested, and the GI50 [1] was 15.6 µM (inactive), the GI50 [3] was 11.9 µM (inactive) and the GI50 [5] was 15.7 µM (inactive). The GI50 [6] was 16.1 µM (inactive), the GI50 [7] was 11 µM and the GI50 [8] was 18.4 µM (inactive). The GI50 [10] was 2.82 µM (inactive), the GI50 [11] was 13.7 µM (inactive) and the GI50 [12] was 12.6 µM (inactive). For the same compound, the GI50 [19] was 10.9 µM (inactive), the GI50 [14] was 17.9 µM (inactive) and the GI50 [18] was 12.7 µM (inactive). For the same compound, the GI50 [15] was 14.3 µM (inactive), the GI50 [16] was 14.6 µM (inactive) and the GI50 [17] was 13.8 µM (inactive).
With `Cn1cnc([N+](=O)[O-])c1[Se]c1ncnc2nc[nH]c12` the GI50 [1] was 2 µM (inactive), the GI50 [2] was 0.497 µM (active) and the GI50 [3] was 13.4 µM (inactive). For the same compound, the GI50 [4] was 15.2 µM (inactive), the GI50 [5] was 24 µM (inactive) and the GI50 [7] was 15.6 µM. For the same compound, the GI50 [8] was 10.4 µM (inactive), the GI50 [9] was 15.5 µM (inactive) and the GI50 [10] was 3.65 µM (inactive). The GI50 [11] was 14.6 µM (inactive), the GI50 [12] was 0.925 µM (active) and the GI50 [13] was 4.07 µM (inactive). For the same compound, the GI50 [19] was 2.04 µM (inactive), the GI50 [14] was 10 µM (inactive) and the GI50 [18] was 21.2 µM (inactive). For the same compound, the GI50 [15] was 12.2 µM (inactive), the GI50 [16] was 13.6 µM (inactive) and the GI50 [17] was 3.72 µM (inactive).
`CCOC(=O)c1c(C)n(C)c2c1cc(O)c1[nH]c3c(c12)CCCC3` was tested, and the GI50 [1] was 5.62 µM (inactive), the GI50 [2] was 14.5 µM (inactive) and the GI50 [3] was 19.2 µM (inactive). For the same compound, the GI50 [4] was 18.2 µM (inactive), the GI50 [5] was 38.4 µM (inactive) and the GI50 [6] was 15.6 µM (inactive). The GI50 [7] was 27.2 µM, the GI50 [8] was 18.5 µM (inactive) and the GI50 [10] was 19.6 µM (inactive). The GI50 [11] was 45.7 µM (inactive), the GI50 [12] was 28.4 µM (inactive) and the GI50 [13] was 17.3 µM (inactive). For the same compound, the GI50 [14] was 18.8 µM (inactive), the GI50 [18] was 17.6 µM (inactive) and the GI50 [15] was 0.0185 µM (active). For the same compound, the GI50 [16] was 2.71 µM (inactive) and the GI50 [17] was 7.66 µM (inactive).
With `CCOC(=O)C(Cc1ccc(OC(=O)OC(C)(C)C)cc1)NC(=O)OC(C)(C)C` (stereo not given) the GI50 [1] was 40.6 µM (inactive), the GI50 [2] was 44.1 µM (inactive) and the GI50 [3] was 44.8 µM (inactive). For the same compound, the GI50 [4] was 29 µM (inactive), the GI50 [5] was > 100 µM (inactive) and the GI50 [6] was > 100 µM (inactive). For the same compound, the GI50 [7] was greater than 100 µM, the GI50 [8] was > 100 µM (inactive) and the GI50 [9] was 53.2 µM (inactive). The GI50 [10] was 54.3 µM (inactive), the GI50 [11] was > 100 µM (inactive) and the GI50 [12] was > 100 µM (inactive). The GI50 [13] was 76.4 µM (inactive), the GI50 [19] was 26.4 µM (inactive) and the GI50 [14] was > 100 µM (inactive). The GI50 [18] was > 100 µM (inactive), the GI50 [16] was > 100 µM (inactive) and the GI50 [17] was > 100 µM (inactive).
With `C/C(=C/C(=O)Nn1c(Cc2ccccc2)n[nH]c1=O)C(=O)O` the GI50 [1] was > 100 µM (inactive), the GI50 [2] was > 100 µM (inactive) and the GI50 [3] was > 100 µM (inactive). For the same compound, the GI50 [4] was > 100 µM (inactive), the GI50 [5] was > 100 µM (inactive) and the GI50 [6] was > 100 µM (inactive). The GI50 [7] was greater than 100 µM, the GI50 [8] was > 100 µM (inactive) and the GI50 [9] was > 100 µM (inactive). The GI50 [10] was > 100 µM (inactive), the GI50 [11] was > 100 µM (inactive) and the GI50 [12] was > 100 µM (inactive). For the same compound, the GI50 [13] was > 100 µM (inactive), the GI50 [14] was > 100 µM (inactive) and the GI50 [18] was > 100 µM (inactive). The GI50 [16] was > 100 µM (inactive) and the GI50 [17] was > 100 µM (inactive).
For `OCC1(CNc2cc(Cl)ncn2)CCC1`, the GI50 [1] was > 100 µM (inactive), the GI50 [2] was > 100 µM (inactive) and the GI50 [3] was > 100 µM (inactive). The GI50 [6] was > 100 µM (inactive), the GI50 [7] was greater than 100 µM and the GI50 [8] was > 100 µM (inactive). For the same compound, the GI50 [10] was > 100 µM (inactive), the GI50 [11] was > 100 µM (inactive) and the GI50 [13] was > 100 µM (inactive). For the same compound, the GI50 [19] was > 100 µM (inactive), the GI50 [14] was > 100 µM (inactive) and the GI50 [18] was > 100 µM (inactive). The GI50 [15] was > 100 µM (inactive), the GI50 [16] was > 100 µM (inactive) and the GI50 [17] was > 100 µM (inactive).
`CC1(C)CC2C(=O)c3ccccc3NC2c2ccccc21` (stereo not given) was tested, and the GI50 [1] was 4.29 µM (inactive), the GI50 [2] was 4.76 µM (inactive) and the GI50 [3] was 2.33 µM (inactive). For the same compound, the GI50 [4] was 4.51 µM (inactive), the GI50 [5] was 5.79 µM (inactive) and the GI50 [6] was 0.32 µM (active). The GI50 [7] was 3.6 µM, the GI50 [9] was 1.87 µM (inactive) and the GI50 [10] was 6.03 µM (inactive). For the same compound, the GI50 [11] was 10.8 µM (inactive), the GI50 [12] was 6.32 µM (inactive) and the GI50 [13] was 1.09 µM (active). The GI50 [14] was 3.48 µM (inactive), the GI50 [18] was 43.2 µM (inactive) and the GI50 [15] was > 24.6 µM (inactive). For the same compound, the GI50 [16] was 4.33 µM (inactive) and the GI50 [17] was 4.99 µM (inactive).
